Reference: article PMC6934184, “Selective DNA-PKcs inhibition extends the therapeutic index of localized radiotherapy and chemotherapy” (The Journal of Clinical Investigation, 2019)

Biological target: T1, CDK2/cyclin A (Homo sapiens, UniProt P24941)
T1 construct: purchased Thermo Fisher Scientific (Life Technologies) SelectScreen
Assay: SelectScreen Z'LYTE
Format: biochemical
Summary of the method: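 SelectScreen broad panel; activity (Z'LYTE, Adapta) plus binding formats. ATP: Km app for CSF1R Z'LYTE; 10 for CAMK1 Adapta. Readout = % per kinase.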

## CN(C(=O)CN1CCOCC1)c1ccc2sc3c(-c4cccc5c(=O)cc(N6CC7CCC(C6)O7)oc45)cccc3c2c1 [NU5455]
  inhibition at 1 µM: 2.7%
